Columns and labels:
Test in all cases: relative viability (nuclei count vs DMSO), 5 days (fraction); higher = more cells survive
BAY61-3606 + Alpelisib = compound: COC1=C(C=C(C=C1)C2=CC3=NC=CN3C(=N2)NC4=C(C=CC=N4)C(=O)N)OC [BAY61-3606] + Cc1nc(NC(=O)N2CCC[C@H]2C(N)=O)sc1-c1ccnc(C(C)(C)C(F)(F)F)c1 [Alpelisib] (partner 2 µM)
Summary of the method: (§1)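 Values are medians from duplicate plates. Each reflects relative viability, defined as the nuclei count of treated wells over that of vehicle wells. Lung cancer cell lines in 1536-well plates were pin-tool dosed one day after seeding with one drug alone or with a fixed anchor-drug dose plus five library-drug doses (not always all listed) in √10 steps, then fixed, stained and imaged at 4× after 5 days.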

[1] = compound: COc1cccc2c1C(=O)c1c(O)c3c(c(O)c1C2=O)C[C@@](O)(C(=O)CO)C[C@@H]3O[C@H]1C[C@H](N)[C@H](O)[C@H](C)O1 [Doxorubicin] + CC(=O)c1c(C)c2cnc(Nc3ccc(N4CCNCC4)cn3)nc2n(C2CCCC2)c1=O [Palbociclib] (partner 0.5 µM)
Summary of the method: as §1

Doxorubicin + Bortezomib = compound: COc1cccc2c1C(=O)c1c(O)c3c(c(O)c1C2=O)C[C@@](O)(C(=O)CO)C[C@@H]3O[C@H]1C[C@H](N)[C@H](O)[C@H](C)O1 [Doxorubicin] + CC(C)C[C@H](NC(=O)[C@H](Cc1ccccc1)NC(=O)c1cnccn1)B(O)O [Bortezomib] (partner 0.002 µM)
Summary of the method: as §1

Doxorubicin + AZD7762 = compound: COc1cccc2c1C(=O)c1c(O)c3c(c(O)c1C2=O)C[C@@](O)(C(=O)CO)C[C@@H]3O[C@H]1C[C@H](N)[C@H](O)[C@H](C)O1 [Doxorubicin] + NC(=O)Nc1cc(-c2cccc(F)c2)sc1C(=O)N[C@H]1CCCNC1 [AZD7762] (partner 0.2 µM)
Summary of the method: as §1

Row | Cell Line | relative viability (BAY61-3606 + Alpelisib; first compound 0.02 µM) | relative viability (BAY61-3606 + Alpelisib; first compound 0.06325 µM) | relative viability (BAY61-3606 + Alpelisib; first compound 0.2 µM) | relative viability (BAY61-3606 + Alpelisib; first compound 0.6325 µM) | relative viability (BAY61-3606 + Alpelisib; first compound 2 µM) | relative viability ([1]; first compound 0.001 µM) | relative viability ([1]; first compound 0.003162 µM) | relative viability ([1]; first compound 0.01 µM) | relative viability ([1]; first compound 0.03162 µM) | relative viability ([1]; first compound 0.1 µM) | relative viability (Doxorubicin + Bortezomib; first compound 0.001 µM) | relative viability (Doxorubicin + Bortezomib; first compound 0.003162 µM) | relative viability (Doxorubicin + Bortezomib; first compound 0.01 µM) | relative viability (Doxorubicin + Bortezomib; first compound 0.03162 µM) | relative viability (Doxorubicin + Bortezomib; first compound 0.1 µM) | relative viability (Doxorubicin + AZD7762; first compound 0.001 µM) | relative viability (Doxorubicin + AZD7762; first compound 0.003162 µM) | relative viability (Doxorubicin + AZD7762; first compound 0.01 µM) | relative viability (Doxorubicin + AZD7762; first compound 0.03162 µM) | relative viability (Doxorubicin + AZD7762; first compound 0.1 µM)
1 | NCI-H2085 | 0.994 | 0.977 | 1.04 | 0.949 | 0.871 | 0.472 | 0.458 | 0.461 | 0.53 | 0.512 | 0.903 | 1.05 | 0.907 | 0.709 | 0.716 | 0.972 | 0.974 | 0.856 | 1.1 | 0.896
2 | NCI-H2405 | 1.03 | 0.619 | 0.682 | 0.881 | 0.574 | 0.537 | 0.534 | 0.51 | 0.463 | 0.447 | 1 | 1.01 | 0.973 | 0.994 | 0.994 | 0.785 | 0.802 | 0.801 | 0.682 | 0.381
3 | NCI-H650 | 1.27 | 1.12 | 1 | 1.1 | 0.871 | 0.371 | 0.362 | 0.325 | 0.293 | 0.326 | 0.862 | 0.688 | 0.914 | 0.697 | 0.511 | 0.949 | 0.921 | 0.948 | 0.89 | 0.718
4 | EKVX | 0.916 | 0.886 | 0.89 | 0.981 | 0.744 | 0.794 | 0.312 | 0.342 | 0.31 | 0.374 | 0.956 | 1.04 | 1.06 | 0.994 | 0.591 | 0.719 | 0.844 | 0.794 | 0.725 | 0.486
5 | EPLC-272H | 1.03 | 0.935 | 1 | 0.986 | 0.905 | 0.279 | 0.28 | 0.301 | 0.328 | 0.29 | 0.827 | 0.98 | 0.897 | 1.05 | 0.931 | 0.337 | 0.182 | 0.164 | 0.221 | 0.241
6 | NCI-H322M | 0.9 | 0.792 | 0.852 | 0.898 | 0.841 | 0.548 | 0.482 | 0.486 | 0.465 | 0.465 | 1.45 | 1.21 | 1.28 | 1.27 | 1.18 | 0.514 | 0.546 | 0.6 | 0.502 | 0.429
7 | NCI-H1792 | 0.743 | 0.673 | 0.74 | 0.751 | 0.674 |  | 0.668 | 0.651 | 0.542 | 0.558 | 0.929 | 1.1 | 1 | 0.898 | 0.924 | 0.653 | 0.824 | 0.721 | 0.522 | 0.45
8 | HCC-827 | 0.94 | 1.01 | 0.995 | 0.954 | 0.916 | 0.465 | 0.458 | 0.484 | 0.465 | 0.593 | 1.05 | 1.03 | 1.07 | 1.01 | 0.956 | 0.134 | 0.214 | 0.197 | 0.191 | 0.174
9 | LU99A | 0.508 | 0.521 | 0.508 | 0.492 | 0.251 | 0.449 | 0.521 | 0.44 | 0.41 | 0.417 | 1.1 | 1.23 | 1.14 | 0.764 | 0.5 | 0.353 | 0.394 | 0.429 | 0.317 | 0.324
10 | LC-2-ad | 0.851 | 0.96 | 0.875 | 0.82 | 0.671 | 0.475 | 0.476 | 0.496 | 0.517 | 0.495 | 1.01 | 0.962 | 0.995 | 0.834 | 0.544 | 0.831 | 0.781 | 0.859 | 0.827 | 0.725
11 | NCI-H460 | 0.58 | 0.442 | 0.482 | 0.398 | 0.174 | 0.103 | 0.108 | 0.0853 | 0.041 | 0.007 | 0.981 | 0.964 | 0.244 | 0.0223 | 0.0093 | 0.659 | 0.635 | 0.561 | 0.177 | 0.0853
12 | HOP-62 | 0.901 |  | 0.874 | 0.947 | 0.64 | 0.421 | 0.444 | 0.494 | 0.434 | 0.486 | 0.779 | 0.864 | 0.657 | 0.767 | 0.632 | 0.533 | 0.54 | 0.519 | 0.527 | 0.397
13 | NCI-H441 | 0.734 | 0.796 | 0.809 | 0.848 | 0.439 | 0.227 | 0.217 | 0.229 | 0.153 | 0.195 |  | 0.452 | 0.392 | 0.295 | 0.315 | 1.05 | 1.07 | 0.954 | 0.853 | 0.912
14 | NCI-H1993 | 0.644 | 0.674 | 0.719 | 0.758 | 0.703 | 0.492 | 0.695 | 0.639 | 0.625 | 0.649 | 1.1 | 0.945 | 1.06 | 0.634 | 0.439 | 0.856 | 0.882 | 0.708 | 0.73 | 0.579
15 | NCI-H1734 | 0.706 | 0.615 | 0.653 | 0.654 | 0.413 | 0.408 | 0.425 | 0.324 | 0.263 | 0.344 | 0.867 | 1.09 | 0.89 | 0.588 | 0.429 | 0.515 | 0.58 | 0.539 | 0.318 | 0.283
16 | NCI-H1666 | 0.903 |  | 0.981 | 0.993 | 0.956 |  | 0.646 | 0.626 | 0.565 | 0.568 | 0.833 | 0.559 | 0.476 | 0.302 | 0.272 | 0.909 | 0.762 | 0.882 | 0.795 | 0.596

Reference: the supplement of paper PMC10307832
